Data set [1] concerns primary AML cells (AML 08). Nature of the data set: Annexin V/PI apoptosis assay, primary AML cells. In kind it is cell-based, human. The note with it: 2, 20, and 200 nM. The protocol:
Primary leukemia cells for in vitro studies were isolated from BM or PB obtained from AML or ALL patients enrolled on a separate University of Maryland, Baltimore, IRB-approved protocol for tissue collection and not treated on this clinical study. The cells were isolated by gradient centrifugation using LSM (Mediatech) according to the manufacturer’s protocol. Cells were used either fresh or after viable freezing (FBS/10 % DMSO). Primary leukemia cells were cultured in RPMI 1640 (Invitrogen, Grand Island, NY, USA) supplemented with 15 % heat-inactivated FBS (HyClone Laboratories Inc., Red Bank, NJ, USA) and 200 mM L-Glutamine (Invitrogen). Leukemia cell lines HL-60 (AML), MOLT-4 (T cell ALL), and K562 (chronic myelogenous leukemia [CML] in erythroid blast transformation) were purchased from American Type Culture Collection (ATCC, Manassas, VA, USA) and cultured in RPMI 1640 (Invitrogen) supplemented with 10 % heat-inactivated FBS (HyClone Laboratories Inc.) and 200 mM L-Glutamine (Invitrogen).

Data set [2] concerns PARP, Mcl-1, p-Rb in primary leukemia samples. In words: Western blot, primary leukemia cells in vitro. In kind it is cell-based, human. The note with it: 6-h exposure, ≥20 nM; more prominent at 200 nM and 24 h. As to the method: (§1) Primary leukemia cells for in vitro studies were isolated from BM or PB obtained from AML or ALL patients enrolled on a separate University of Maryland, Baltimore, IRB-approved protocol for tissue collection and not treated on this clinical study. The cells were isolated by gradient centrifugation using LSM (Mediatech) according to the manufacturer’s protocol. Cells were used either fresh or after viable freezing (FBS/10 % DMSO). Primary leukemia cells were cultured in RPMI 1640 (Invitrogen, Grand Island, NY, USA) supplemented with 15 % heat-inactivated FBS (HyClone Laboratories Inc., Red Bank, NJ, USA) and 200 mM L-Glutamine (Invitrogen). […]
(§2) For Western blot analysis, leukemia cell pellets (primary leukemia cells, HL-60, MOLT-4, K562) were washed with PBS and lysed with RIPA buffer (Sigma-Aldrich, St. Louis, MO, USA) supplemented with Complete Mini™ protease inhibitor and PHOStop™ phosphatase inhibitors (Roche). […] Blots were washed three times, and the signal was detected with Amersham™ ECL™ detection systems (GE Healthcare, Pittsburgh, PA, USA). […] The Western blot signals were measured by densitometry using ImageJ 1.45I software (NIH, Bethesda, USA).
(In general: A western blot detects proteins with antibodies after separation by electrophoresis.)

Data set [3] relates to Mcl-1, PARP cleavage in HL-60, MOLT-4, K562. Nature of the data set: Western blot, leukemia cell lines in vitro. In kind it is cell-based, human. The note with it: most prominent with 6 and 24 h exposure. The protocol: as §1, §2
For data set [4] the following is noted: cited from earlier work.

Like-named read-outs stand apart in the source and are kept apart here.

Take `CCc1cnn2c(NCc3ccc[n+]([O-])c3)cc(N3CCCC[C@H]3CCO)nc12` [Dinaciclib]: the “apoptosis (AnnexinV/PI flow cytometry)” value in data set [1] is “induced apoptosis in primary AML cells (AML 08) in a time- and concentration-dependent manner”. For the same compound, the “Mcl-1 expression and PARP cleavage” value is “down-regulation of Mcl-1 and induction of PARP cleavage were observed in all 5 primary leukemia samples” in data set [2]; “down-regulates the expression of the anti-apoptotic protein Mcl-1 independently of caspases and induces PARP cleavage” in data set [3]. Also, the “recommended phase II dose (RPTD)” value in data set [4] (2-h infusion on days 1, 8, 15 every 28 days) is 12 mg/m^2; in data set [4] (2-h infusion once every 21 days) it was 50 mg/m^2. Also, the average dinaciclib concentration in data set [4] (8-h continuous infusion, 7.4–50 mg/m^2, preliminary) was 200–1,031 nM; in data set [4] (24-h continuous infusion, 7.4–14.6 mg/m^2, preliminary) it was 82.3 to 184 nM.

Source of the values: article PMC3784060 (Cancer Chemotherapy and Pharmacology, 2013).
